Numbers after ± are expanded uncertainties.
Assay: xn = mol fraction of the nth substance listed
Conditions: 100 kPa, Liquid; for viscosity: Concentric cylinders viscometry; for mass density: Vibrating tube method

CCCCCCn1cc[n+](C)c1.O=[N+]([O-])[O-] [1-hexyl-3-methylimidazolium nitrate] + CCCCCCCCCCO
Conditions | mass density, 293.15 K [kg/m3] | mass density, 298.15 K [kg/m3] | mass density, 303.15 K [kg/m3] | viscosity, 293.15 K [mPa·s] | viscosity, 298.15 K [mPa·s] | viscosity, 303.15 K [mPa·s] | viscosity, 308.15 K [mPa·s]
x1 = 0.0818 | 855.4 ± 1.2 | 851.9 ± 1.2 | 848.4 ± 1.2 | 18.62 ± 1.5 | 15 ± 1.2 | 11.86 ± 0.95 | 9.51 ± 0.76
x1 = 0.1583 | 879.2 ± 1.2 | 875.7 ± 1.2 | 872.2 ± 1.2 | 24.27 ± 1.9 | 18.75 ± 1.5 | 14.39 ± 1.2 | 10.86 ± 0.87
x1 = 0.2414 | 904.7 ± 1.2 | 901.3 ± 1.2 | 897.7 ± 1.2 | 33.34 ± 2.7 | 23.93 ± 1.9 | 17.58 ± 1.4 | 12.85 ± 1
x1 = 0.3482 | 937.1 ± 1.2 | 933.6 ± 1.2 | 930 ± 1.2 | 50.7 ± 4.1 | 33.81 ± 2.7 | 22.91 ± 1.8 | 16.03 ± 1.3
x1 = 0.4414 | 964.8 ± 1.2 | 961.4 ± 1.2 | 957.8 ± 1.2 | 73.79 ± 6 | 47.42 ± 3.8 | 30.27 ± 2.4 | 20.04 ± 1.6
x1 = 0.5593 | 999.2 ± 1.2 | 995.8 ± 1.2 | 992.2 ± 1.2 | 119.12 ± 9.7 | 74.3 ± 6 | 45.39 ± 3.7 | 28.44 ± 2.3
x1 = 0.6481 | 1024.6 ± 1.2 | 1021.3 ± 1.2 | 1017.7 ± 1.2 | 173.38 ± 14 | 111.69 ± 9.1 | 65.77 ± 5.3 | 39.63 ± 3.2
x1 = 0.7414 | 1050.8 ± 1.3 | 1047.5 ± 1.3 | 1044 ± 1.3 | 261.82 ± 22 | 171 ± 14 | 98.7 ± 8.1 | 60.67 ± 4.9
x1 = 0.8496 | 1080.4 ± 1.4 | 1077.3 ± 1.4 | 1073.9 ± 1.3 | 419.76 ± 36 | 276.06 ± 23 | 168.66 ± 14 | 108.57 ± 8.9
x1 = 0.9402 | 1104.7 ± 1.4 | 1101.7 ± 1.4 | 1098.4 ± 1.4 | 625.17 ± 54 | 417.45 ± 36 | 267.65 ± 22 | 183.87 ± 15
x1 = 1 | 1120.3 ± 1.4 | 1117.5 ± 1.4 | 1114.3 ± 1.4 | 804.17 ± 70 | 545.25 ± 47 | 369.14 ± 31 | 257.59 ± 21

Source: the NIST ThermoML archive (doi:10.1021/acs.jced.9b00507)
